Experimental data as given in patent US9586951B2 (FUJIFILM Corporation, priority 2013, dated 2017).

How the values were obtained:
[1] = target: T1, ATM (Homo sapiens, UniProt Q13315); assay: ATM inhibition test (phosphorylation of Chk2 generated by ionizing radiation, AlphaScreen SureFire); assay type: cell-based; settings: phosphorylated Chk2 in NCI-H460 cells, ionizing radiation 8Gy, 1 hour after test compound treatment; read-out: ATM inhibitory activity
T1 construct: detecting phosphorylation of Chk2 in a human non-small cell lung cancer cell line NCI-H460 (ATCC company); host or cells: NCI-H460 human non-small cell lung cancer cells
In short: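 NCI-H460 cells, compound 1 h pre-treatment, 8Gy IR, further 1 h at 37° C in 5% CO2. Read-out: phospho-Chk2 via AlphaScreen SureFire. % inhibition relative to IR-induced signal window (irradiated vs non-irradiated drug-free wells).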

[2] = test system: human non-small cell lung cancer cell line NCI-H460; assay: Cell proliferation inhibition test by sensitivity-enhancing to ionizing radiation (Cell Titer Glo); assay type: cell-based; settings: Homo sapiens, concentration in which SER became 2, NCI-H460 cells, ionizing radiation 2 Gy, cultured 120 hour
Protocol: A human non-small cell lung cancer cell line NCI-H460 (ATCC company) was adjusted so as to be 2×10^3 cells/mL in a RPMI-1640 medium containing penicillin/streptomycin and FBS having a final concentration of 10%, and this was seeded by 100 μL per well in 96-well CellBIND® plates (Corning International Inc.). After 24 hours, the medium of cells was replaced with 100 μL of a medium including serially diluted liquid of the test compound or DMSO having a final concentration of 0.1%. 30 minutes after the medium was replaced, half of the plates were irradiated with ionizing radiation 2 Gy (Faxitron Bioptics, LLC, RX-650 type). The cells of the plates irradiated with ionizing radiation and the plates not being irradiated with ionizing radiation were cultured at 37° C. for 120 hour in 5% CO2. After a Cell Titer Glo reaction liquid of an equal volume was added to each well, the amount of luminescence was measured, according to the instruction book of Cell Titer Glo (Promega Corporation). Since the amount of luminescence is proportional to the ATP concentration in cells, the amount of luminescence was used as an indicator of the number of viable cells. Sensitivity-enhancing effects (SER) to ionizing radiation by the test compound was calculated by the following equation. SER=(amount of luminescence of wells including DMSO having a final concentration of 0.1% in the plates irradiated with ionizing radiation×amount of luminescence of wells including a compound in the plates not being irradiated with ionizing radiation)/(amount of luminescence of wells including the test compound in the plates irradiated with ionizing radiation×amount of luminescence of wells including DMSO having a final concentration of 0.1% in the plates not being irradiated with ionizing radiation)
SER at each compound concentration was plotted by nonlinear regression fit (FitModel (205)) by a sigmoidal dose-response equation using XLfit software (IDBS), and the concentration (SER2) in which SER became 2 was calculated.

T1 sequence (Q13315 whole entry): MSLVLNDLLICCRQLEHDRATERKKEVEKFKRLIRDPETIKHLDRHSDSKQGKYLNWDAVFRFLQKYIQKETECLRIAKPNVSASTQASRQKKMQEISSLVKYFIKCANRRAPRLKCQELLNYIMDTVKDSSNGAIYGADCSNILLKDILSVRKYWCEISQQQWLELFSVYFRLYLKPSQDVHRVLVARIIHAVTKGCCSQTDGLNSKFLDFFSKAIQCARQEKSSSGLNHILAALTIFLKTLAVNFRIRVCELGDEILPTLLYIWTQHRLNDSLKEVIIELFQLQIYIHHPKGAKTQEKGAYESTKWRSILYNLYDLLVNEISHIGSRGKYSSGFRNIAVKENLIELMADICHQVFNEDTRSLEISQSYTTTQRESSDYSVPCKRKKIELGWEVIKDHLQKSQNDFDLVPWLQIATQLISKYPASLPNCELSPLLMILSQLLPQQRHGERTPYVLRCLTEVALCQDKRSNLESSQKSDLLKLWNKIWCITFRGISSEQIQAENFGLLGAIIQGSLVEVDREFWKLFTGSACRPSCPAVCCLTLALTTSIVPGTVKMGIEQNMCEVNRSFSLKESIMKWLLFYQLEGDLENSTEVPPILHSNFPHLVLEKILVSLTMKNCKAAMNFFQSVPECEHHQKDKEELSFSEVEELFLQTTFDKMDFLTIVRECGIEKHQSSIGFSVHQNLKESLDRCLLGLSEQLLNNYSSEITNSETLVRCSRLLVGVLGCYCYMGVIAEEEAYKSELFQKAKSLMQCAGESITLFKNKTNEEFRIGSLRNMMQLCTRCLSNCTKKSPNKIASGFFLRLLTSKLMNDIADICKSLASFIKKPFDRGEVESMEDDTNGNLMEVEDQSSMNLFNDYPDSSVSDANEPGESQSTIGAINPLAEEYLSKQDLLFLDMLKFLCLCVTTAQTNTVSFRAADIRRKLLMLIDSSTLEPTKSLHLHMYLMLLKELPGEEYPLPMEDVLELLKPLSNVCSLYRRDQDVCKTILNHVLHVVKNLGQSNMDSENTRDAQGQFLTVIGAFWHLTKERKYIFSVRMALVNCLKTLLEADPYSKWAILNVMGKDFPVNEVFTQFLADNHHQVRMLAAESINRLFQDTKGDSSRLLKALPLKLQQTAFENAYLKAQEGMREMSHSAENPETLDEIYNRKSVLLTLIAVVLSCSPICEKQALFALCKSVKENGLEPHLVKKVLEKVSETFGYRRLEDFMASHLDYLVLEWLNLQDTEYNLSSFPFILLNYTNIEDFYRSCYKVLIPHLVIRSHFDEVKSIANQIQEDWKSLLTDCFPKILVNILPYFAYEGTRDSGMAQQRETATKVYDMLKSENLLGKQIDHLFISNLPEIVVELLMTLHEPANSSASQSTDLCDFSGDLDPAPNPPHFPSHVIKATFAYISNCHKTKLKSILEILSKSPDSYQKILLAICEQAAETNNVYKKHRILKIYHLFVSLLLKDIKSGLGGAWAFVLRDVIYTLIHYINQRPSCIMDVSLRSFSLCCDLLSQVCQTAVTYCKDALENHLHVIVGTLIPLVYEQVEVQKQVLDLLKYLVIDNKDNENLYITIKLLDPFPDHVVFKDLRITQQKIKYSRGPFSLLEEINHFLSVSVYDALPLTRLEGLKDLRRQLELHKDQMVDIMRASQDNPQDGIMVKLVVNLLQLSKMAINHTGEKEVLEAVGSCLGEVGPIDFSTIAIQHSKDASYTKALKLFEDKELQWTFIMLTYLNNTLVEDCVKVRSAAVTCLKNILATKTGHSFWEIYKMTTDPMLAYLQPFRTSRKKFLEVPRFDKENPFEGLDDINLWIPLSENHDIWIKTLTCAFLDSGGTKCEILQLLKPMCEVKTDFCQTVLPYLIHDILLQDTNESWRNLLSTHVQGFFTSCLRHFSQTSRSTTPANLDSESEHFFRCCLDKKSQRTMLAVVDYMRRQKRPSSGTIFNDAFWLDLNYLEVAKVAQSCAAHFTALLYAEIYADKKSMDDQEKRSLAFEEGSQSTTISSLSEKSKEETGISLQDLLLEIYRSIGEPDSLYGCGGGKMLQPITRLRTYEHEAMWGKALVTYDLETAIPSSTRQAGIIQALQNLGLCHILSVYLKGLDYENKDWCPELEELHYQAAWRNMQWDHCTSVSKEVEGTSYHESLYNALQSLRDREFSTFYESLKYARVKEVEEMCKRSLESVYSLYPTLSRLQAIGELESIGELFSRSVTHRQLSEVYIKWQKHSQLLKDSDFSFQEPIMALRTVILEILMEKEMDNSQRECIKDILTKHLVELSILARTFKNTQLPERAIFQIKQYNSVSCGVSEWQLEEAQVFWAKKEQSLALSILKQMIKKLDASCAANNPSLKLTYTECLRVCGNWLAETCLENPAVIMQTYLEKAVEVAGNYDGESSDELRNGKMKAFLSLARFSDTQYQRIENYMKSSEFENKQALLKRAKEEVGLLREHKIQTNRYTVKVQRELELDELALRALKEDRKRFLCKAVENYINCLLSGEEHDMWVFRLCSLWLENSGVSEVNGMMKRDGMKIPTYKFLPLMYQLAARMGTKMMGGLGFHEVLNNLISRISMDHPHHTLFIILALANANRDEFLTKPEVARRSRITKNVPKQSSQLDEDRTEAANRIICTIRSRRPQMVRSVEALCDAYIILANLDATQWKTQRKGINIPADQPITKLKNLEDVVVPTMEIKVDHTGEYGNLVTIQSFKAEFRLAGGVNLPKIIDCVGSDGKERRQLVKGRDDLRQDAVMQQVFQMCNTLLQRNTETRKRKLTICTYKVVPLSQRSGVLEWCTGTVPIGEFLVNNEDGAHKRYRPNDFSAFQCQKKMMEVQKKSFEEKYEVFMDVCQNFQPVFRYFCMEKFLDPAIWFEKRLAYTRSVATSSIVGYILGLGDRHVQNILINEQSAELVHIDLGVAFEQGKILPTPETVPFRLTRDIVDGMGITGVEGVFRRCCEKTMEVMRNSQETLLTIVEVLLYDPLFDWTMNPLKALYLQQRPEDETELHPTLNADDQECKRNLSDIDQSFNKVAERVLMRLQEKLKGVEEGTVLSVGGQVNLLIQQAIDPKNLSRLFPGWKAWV

Row | SMILES | IC50 [1] | SER2 (concentration at which the radiation sensitivity-enhancement ratio reaches 2) ([2]; NCI-H460, 120 h) | SER2 (concentration at which the radiation sensitivity-enhancement ratio reaches 2) [2]
1 | N#Cc1cncc(CNc2ccc3c(c2)Cc2cccc(-c4cc(N5CCOCC5)cc(=O)[nH]4)c2O3)c1 [Example 2-14-7, 5-(((5-(4-Morpholino-6-oxo-1,6-dihydropyridin-2-yl)-9H-xanthen-2-yl)amino)methyl)nicotinonitrile] | < 100 nM | 500 to 2000 nM | –
2 | COC[C@H](CN1CCC(C(F)(F)F)CC1)Nc1ccc2c(c1)Sc1cccc(-c3cc(N4CCOCC4)cc(=O)[nH]3)c1S2 [Example 1-46-8, (S)-6-(7-((1-Methoxy-3-(4-(trifluoromethyl)piperidin-1-yl)propan-2-yl)amino)thianthren-1-yl)-4-morpholino pyridin-2(1H)-one] | < 100 nM | 100 to 500 nM | –
3 | CC1CN(CCNc2ccc3c(c2)Sc2cccc(-c4cc(N5CCOCC5)cc(=O)[nH]4)c2S3)CCO1 (centres unmarked) [Example 1-16-6, 6-(7-((2-(2-Methylmorpholino)ethyl)amino)thianthren-1-yl)-4-morpholinopyridin-2(1H)-one] | < 100 nM | – | 100 to 500 nM
4 | Nc1ccc2c(c1)Sc1cccc(-c3cc(N4CCOCC4)cc(=O)[nH]3)c1S2 [Example 1-1, 6-(7-aminothianthren-1-yl)-4-morpholinopyridin-2(1H)-one] | < 100 nM | 500 to 2000 nM | –
5 | COc1cncc(C(C)Nc2ccc3c(c2)Sc2cccc(-c4cc(N5CCOCC5)cc(=O)[nH]4)c2S3)c1 (single isomer, unassigned) [Example 1-12-145-1, 6-(7-((1-(5-methoxypyridin-3-yl)ethyl)amino)thianthren-1-yl)-4-morpholinopyridin-2(1H)-one] | < 100 nM | 100 to 500 nM | –
6 | COc1ccnc(C(C)Nc2ccc3c(c2)Cc2cccc(-c4cc(N5CCOCC5)cc(=O)[nH]4)c2O3)c1 (centres unmarked) [Example 2-14-20, 6-(7-((1-(4-Methoxypyridin-2-yl)ethyl)amino)-9H-xanthen-4-yl)-4-morpholino pyridin-2(1H)-one] | < 100 nM | < 100 nM | –
7 | O=c1cc(N2CCOCC2)cc(-c2cccc3c2Oc2ccc(NCc4ccc(Cl)nc4)cc2S3)[nH]1 [Example 4-8-25, 6-(8-(((6-Chloropyridin-3-yl)methyl)amino)phenoxathiin-4-yl)-4-morpholino pyridin-2(1H)-one] | < 100 nM | 100 to 500 nM | –
8 | Cc1cccc(CNc2ccc3c(c2)Sc2cccc(-c4cc(N5CCOCC5)cc(=O)[nH]4)c2S3)n1 [Example 1-12-2, 6-(7-(((6-Methylpyridin-2-yl)methyl)amino)thianthren-1-yl)-4-1-morpholino pyridin-2 (1H)-one] | < 100 nM | < 100 nM | –
9 | Cc1cc(CNc2ccc3c(c2)Cc2ccnc(-c4cc(N5CCOCC5)cc(=O)[nH]4)c2O3)ccn1 [Example 2-42-3, 6-(7-(((2-Methylpyridin-4-yl)methyl)amino)-5H-chromeno[2,3-c]pyridin-1-yl)-4-morpholinopyridin-2(1H)-one] | 100 to 500 nM | – | –
10 | CCN(CC)C(=O)CN1CCN(c2cccc(CNc3ccc4c(c3)Sc3cccc(-c5cc(N6CCOCC6)cc(=O)[nH]5)c3S4)n2)CC1 [Example 1-12-34, N,N-Diethyl-2-(4-(6-(((6-(4-morpholino-6-oxo-1,6-dihydro-pyridin-2-yl)thianthren-2-yl)amino)methyl)pyridin-2-yl)piperazin-1-yl) acetamide] | 500 to 2000 nM | – | –
11 | O=c1cc(N2CCOCC2)cc(-c2cccc3c2Oc2ccc(NCc4ccnc(Cl)c4)cc2S3)[nH]1 [Example 4-8-14, 6-(8-(((2-Chloropyridin-4-yl)methyl)amino)phenoxathiin-4-yl)-4-morpholino pyridin-2(1H)-one] | 100 to 500 nM | – | –
12 | COC[C@H](CN1CCOCC1)Nc1ccc2c(c1)Cc1cccc(-c3cc(N4CCOCC4)cc(=O)[nH]3)c1O2 [Example 12-5, (S)-6-(7-((1-methoxy-3-morpholinopropan-2-yl)amino)-9H-xanthen-4-yl)-4-morpholinopyridin-2(1H)-one] | 100 to 500 nM | – | –
